Where “and” joins values, the source holds several entries; their conditions need not be identical. Equal entries are not always repeated. Structures can show the parent of a compound that is named as a salt. Where two headings read alike, the source gives them in different places. Marks after values point to notes of the source that are not given here. One block for each molecule: values may come before it.
Assays:
[1] = molecular target: T1, avian liver mPEPCK (Gallus gallus, UniProt P21642); details: with respect to OAA; cited from earlier work
T1 sequence (P21642 34-641): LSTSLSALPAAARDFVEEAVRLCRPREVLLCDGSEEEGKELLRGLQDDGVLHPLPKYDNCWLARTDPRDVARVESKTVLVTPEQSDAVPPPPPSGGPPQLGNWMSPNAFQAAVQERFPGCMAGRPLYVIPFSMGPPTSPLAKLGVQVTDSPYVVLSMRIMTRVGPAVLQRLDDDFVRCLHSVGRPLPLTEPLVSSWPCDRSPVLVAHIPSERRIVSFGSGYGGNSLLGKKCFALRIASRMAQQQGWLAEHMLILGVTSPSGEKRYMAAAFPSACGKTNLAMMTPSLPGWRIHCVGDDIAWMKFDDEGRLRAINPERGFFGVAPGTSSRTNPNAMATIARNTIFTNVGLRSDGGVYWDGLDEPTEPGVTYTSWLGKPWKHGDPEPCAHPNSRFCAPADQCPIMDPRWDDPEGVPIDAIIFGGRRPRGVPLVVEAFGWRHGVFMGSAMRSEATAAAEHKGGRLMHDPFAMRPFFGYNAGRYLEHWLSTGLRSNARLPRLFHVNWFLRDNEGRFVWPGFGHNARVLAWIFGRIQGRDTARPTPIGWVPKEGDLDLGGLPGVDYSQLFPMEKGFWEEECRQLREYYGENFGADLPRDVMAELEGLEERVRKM

[2] = molecular target: T2, Rat Liver Cytosolic Phosphoenolpyruvate Carboxykinase (Rattus norvegicus, UniProt P07379); test: Continuous spectrophotometric PEPCK inhibition assay coupled to malate dehydrogenase (preliminary screen, inhibition patterns, Dixon plots); details: for Inhibition of PEPCK (in words): against PEP;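 as to all read-outs here: PEPCK activity followed continuously via malate dehydrogenase coupling, where OAA reduction consumes NADH, seen as falling absorbance at 340 nm, run at 35 °C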
T2 sequence (P07379 1-622): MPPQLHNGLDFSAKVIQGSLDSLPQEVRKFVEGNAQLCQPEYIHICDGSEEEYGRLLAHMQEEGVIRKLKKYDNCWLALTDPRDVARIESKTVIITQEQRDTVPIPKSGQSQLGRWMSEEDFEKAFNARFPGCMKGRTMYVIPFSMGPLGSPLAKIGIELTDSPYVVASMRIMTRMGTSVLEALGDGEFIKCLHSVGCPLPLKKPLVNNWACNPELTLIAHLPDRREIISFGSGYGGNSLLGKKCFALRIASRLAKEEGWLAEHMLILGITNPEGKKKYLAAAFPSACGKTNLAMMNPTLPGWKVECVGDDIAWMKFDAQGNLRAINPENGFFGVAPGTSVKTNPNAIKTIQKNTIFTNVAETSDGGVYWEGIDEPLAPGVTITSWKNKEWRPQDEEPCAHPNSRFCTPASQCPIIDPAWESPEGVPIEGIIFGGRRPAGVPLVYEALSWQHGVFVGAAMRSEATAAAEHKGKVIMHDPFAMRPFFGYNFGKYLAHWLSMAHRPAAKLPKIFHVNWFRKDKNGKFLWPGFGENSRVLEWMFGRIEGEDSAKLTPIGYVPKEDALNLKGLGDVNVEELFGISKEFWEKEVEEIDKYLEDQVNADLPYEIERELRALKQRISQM
Protocol: TES (pH 7.2), 7.5% glycerol (v:v), 0.2 mM EDTA.
The inhibition of PEPCK by various compounds was evaluated using a continuous spectrophotometric assay in which the coupling enzyme, malate dehydrogenase, reduced OAA to malate concomitant with the oxidation of NADH to NAD^+. The decrease in absorbance at 340 nm was monitored using a Beckman DU-70 Spectrophotometer equipped with a temperature controller. The standard 1-mL reaction mixture for the production of OAA contained 56 mM HEPES-KOH buffer (pH 7.0), 1 mM IDP (or alternatively, 0.1 mM GDP), 23 U malate dehydrogenase (1 unit of malate dehydrogenase is defined as 1 mole malate produced/min/mg protein), 0.25 mM NADH, 2.3 mM MnCl2, and 48 mM NaHCO3. […] All assay components except PEPCK were preincubated in the cuvette for 3 min at 35° C., the standard assay temperature.
The kinetic parameters for the inhibition studies were best fit to the equations for competitive inhibition (Eq. 1) and noncompetitive inhibition (Eq. 2), using the computer program and nomenclature of Cleland (Cleland, W. W. (1979) Statistical analysis of enzyme kinetic data. Methods Enzymol 63, 103-138).
v=VA/[K(1+1/Kis)+A] (Eq. 1)
v=VA/[K(1/Kis)+A(1+1/Kii)] (Eq. 2)
The parameters are defined as follows: v is the initial velocity, V is the maximal rate of product formation in the absence of inhibitor, A is the concentration of the variable substrate, K is the apparent Michaelis constant for the varied substrate, and Kis and Kii are the inhibition constants.

[3] = molecular target: T3, PEPCK (Rattus norvegicus, UniProt P07379); test: Kinetic analysis of CMMP inhibition of PEPCK against PEP (FIG. 5); type: biochemical
T3 sequence (P07379 1-622): T2 sequence (P07379 1-622)
Text: The ‘I’ values given in the legend are the concentrations of CMMP used in uM.
This was originally supported by the inhibition of PEPCK by sulfoacetate. […] Based upon that work, we proposed a novel scaffold to be utilized in the development of molecules that bridge these two sub-sites with and in doing so would gain potency and, perhaps more importantly with a metabolic enzyme like PEPCK, specificity. This scaffold is Formulas C, E, and/or G and an example is CMMP. […] This molecule thereby gains both potency and specificity for PEPCK. […] The information obtained from FIGS. 4 and 5 indicate that derivatives of CMMP, as shown by the scaffolds of Formulas E and G, are likely to be similarly effective as CMMP.

[4] = molecular target: pyrophosphate-dependent phosphofructokinase; details: reported; cited from earlier work
[5] = molecular target: PEPCK; details: cited from earlier work
[6] = molecular target: T4, cytosolic PEPCK (Rattus norvegicus, UniProt P07379); test: Kinetic data for MPA binding to the allosteric site of PEPCK; type: biochemical
T4 sequence (P07379 1-622): T2 sequence (P07379 1-622)

[7] = substrate: C=C(OP(=O)(O)O)C(=O)O; test: cells, lysate or membranes named; details: other: substrate, determined under the same assay conditions
[8] = analogue 3 mM, PEP 40 μM, preliminary screen, average of two PEPCK preparations
[9] = analogue 6 mM, PEP 40 μM, preliminary screen, average of two PEPCK preparations
[10] = from Dixon plots using two PEP concentrations
[11] = analogue 1.5 mM, PEP 40 μM, preliminary screen, average of two PEPCK preparations
[12] = read-out: Ki, intercept effect (Kii), noncompetitive, PEP varied substrate
[13] = read-out: Ki, slope effect (Kis), noncompetitive, PEP varied substrate, Cleland kinetics program
[14] = PEP varied substrate, Cleland kinetics program, 35° C., pH 7.0

Molecule: O=C(O)C(=O)CS(=O)(=O)O [β-sulfopyruvate]
- Pattern of Inhibition [1]: competitive

Molecule: O=C(O)[C@H](O)[C@@H](O)[C@H](O)[C@H](O)COP(=O)(O)O [Compound 16, 6-phosphogluconate]
- Inhibition of PEPCK (in words) [2]: does not inhibit
- % Activity Remaining [2, 8]: 117^c %

Molecule: O=[N+]([O-])c1ccc(OP(=O)(O)O)cc1 [Compound 35, p-Nitrophenylphosphate]
- % Activity Remaining [2, 8]: 103^c %

Molecule: C=C(CC(=O)O)C(=O)O [Compound 7, Itaconate]
- % Activity Remaining [2, 8]: 91^c %

- Inhibition of PEPCK (in words) [2]: did not inhibit
- % Activity Remaining [2, 9]: 83^e %
Molecule: O=C(O)/C=C/C(=O)O [Compound 6, Fumarate]

Molecule: NC(CP(=O)(O)O)C(=O)O (stereo not drawn) [Compound 18, 2-Amino-3-phosphonopropionate]
- Inhibition of PEPCK (in words) [2]: fails to inhibit
- % Activity Remaining [2, 8]: 94^c %

- Ki [3]: 12 µM
- Pattern of Inhibition ([3]; against PEP): competitive
Molecule: O=C(O)CSc1cccnc1C(=O)O [CMMP, 3-carboxymethylmercaptopicolinic acid]

- % Activity Remaining [2, 9]: 52^e %
- Ki [2, 10]: ~2 mM
- Ki ([2]; from Dixon plots using two PEP concentrations, listed as Maleate (5)): 2 mM
Molecule: O=C(O)/C=C\C(=O)O [Compound 5, Maleate]

- Pattern of Inhibition ([2]; PEP varied substrate): noncompetitive
- Pattern of Inhibition ([2]; PEP varied substrate, listed as Methanediphosphonate (29)): Noncompetitive
- % Activity Remaining [2, 11]: 4^f %
- Ki [2, 12]: 0.09 ± 0.005 mM
- Ki [2, 13]: 0.032 ± 0.002 mM
Molecule: O=P(O)(O)CP(=O)(O)O [Compound 29, Methanediphosphonate]
- IC50 [4]: > 2 mM

Molecule: O=P(O)(O)OP(=O)(O)O [Compound 28, Pyrophosphate]
- % Activity Remaining [2]: 22^f %
- Ki [2]: 0.172 mM
- Ki ([2]; read-out: Ki, intercept effect (Kii)): 0.063 mM and 0.064 mM
- Ki ([2]; read-out: Ki, slope effect (Kis)): 0.034 mM

Molecule: O=C(O)C(=O)O [Compound 1, Oxalate]
- Ki [5]: 5 to 89 µM

- Inhibition of PEPCK (in words) [2]: does not cause inhibition
- % Activity Remaining [2, 8]: 105^c %
Molecule: N[C@@H](CS(=O)O)C(=O)O [Compound 27, Cysteine sulfinic acid]

Molecule: O=C(O)C1CCCC1C(=O)O (stereo not drawn) [Compound 8, 1,2-Cyclopentanedicarboxylate]
- % Activity Remaining [2]: 91^c %

Molecule: O=C(O)CP(=O)(O)O [Compound 11, Phosphonoacetate]
- Inhibition of PEPCK (in words) [2]: noninhibitory
- % Activity Remaining [2, 8]: 108^c %

Molecule: O=P(O)(O)CCP(=O)(O)O [Compound 30, 1,2-Ethanediphosphonate]
- Pattern of Inhibition ([2]; PEP varied substrate): competitive
- Ki [2, 14]: 5.1 mM
- Pattern of Inhibition ([2]; PEP varied substrate, listed as 1,2-Ethanediphosphonate (30)): Competitive
- % Activity Remaining [2, 9]: 96^e %

- Pattern of Inhibition ([2]; PEP varied substrate): noncompetitive
- Pattern of Inhibition ([2]; PEP varied substrate, listed as Methanedisulfonate (31)): Noncompetitive
- % Activity Remaining [2, 11]: 4^f %
- Ki [2, 12]: 0.168 ± 0.025 mM
- Ki [2, 13]: 0.027 ± 0.003 mM
Molecule: O=S(=O)(O)CS(=O)(=O)O [Compound 31, Methanedisulfonate]

Molecule: Threonine phosphate [Compound 22]
- % Activity Remaining [2, 8]: 97^c %

Molecule: O=C(O)CNCP(=O)(O)O [Compound 17, N-Phosphonomethylglycine]
- % Activity Remaining [2, 8]: 104^c %

- Inhibition of PEPCK (in words) [2]: noninhibitory
- % Activity Remaining [2, 8]: 110^c %
Molecule: O=C(O)[C@@H](CO)OP(=O)(O)O [Compound 14, 2-D-Phosphoglycerate]

Molecule: Phenylphosphate [Compound 34]
- % Activity Remaining [2, 8]: 96^c %

Molecule: NC(CCP(=O)(O)O)C(=O)O (stereo not drawn) [Compound 19, 2-Amino-4-phosphonobutyrate]
- % Activity Remaining [2, 8]: 104^c %

- % Activity Remaining [2, 8]: 108^c %
Molecule: C[C@@H]1O[C@@H]1P(=O)(O)O [Compound 33, Phosphomycin]

Molecule: CC(C)(C(=O)O)S(=O)(=O)O [Compound 24, 2,2-Dimethylsulfoacetate]
- Ki relative to sulfoacetate [2]: 25 fold
- Pattern of Inhibition [2]: Competitive
- % Activity Remaining [2, 8]: 65^c %
- Ki ([2]; pH 7): 2.1 ± 0.2 mM

- % Activity Remaining [2, 8]: 112^c %
Molecule: N[C@@H](CC(=O)O)C(=O)O [Compound 9, L-Aspartate]

Molecule: O=C(O)CC(C(=O)O)S(=O)(=O)O (stereo not drawn) [Compound 4, Sulfosuccinate]
- % Activity Remaining [2]: 55^c %
- Ki [2]: ~3.3 mM and 3.3 mM

Molecule: C=C(CP(=O)(O)O)C(=O)O [Compound 15, 2-(Phosphonomethyl)acrylate]
- Inhibition of PEPCK (in words) [2]: noninhibitory
- % Activity Remaining [2, 8]: 92^c %

- Inhibition of PEPCK (in words) [2]: even less inhibitory
- % Activity Remaining [2, 8]: 76^c %
Molecule: N[C@@H](CS(=O)(=O)O)C(=O)O [Compound 26, Cysteic acid]

Molecule: NC(CCCP(=O)(O)O)C(=O)O (stereo not drawn) [Compound 20, 2-Amino-5-phosphonovalerate]
- % Activity Remaining [2]: 98^f %

Molecule: O=C(O)CCS(=O)(=O)O [Compound 25, 3-Sulfopropionate]
- Pattern of Inhibition ([2]; PEP varied substrate): Competitive
- Ki [2, 14]: 3.4 ± 0.3 mM
- Inhibition of PEPCK (in words) [2]: poor inhibitor
- % Activity Remaining [2, 8]: 69^c %

Molecule: O=S(=O)(O)CCS(=O)(=O)O [Compound 32, 1,2-Ethanedisulfonate]
- % Activity Remaining [2, 9]: 42^e %
- Ki [2, 10]: ~3 mM
- Ki ([2]; from Dixon plots using two PEP concentrations, listed as 1,2-Ethanedisulfonate (32)): 3 mM

Molecule: O=C(O)CC(=O)O [Compound 2, Malonate]
- % Activity Remaining [2, 8]: 102^c %

- % Activity Remaining [2, 11]: 108^f %
Molecule: N[C@@H](COP(=O)(O)O)C(=O)O [Compound 21, Serine phosphate]

- Ki ([6]; read-out: apparent affinity): ~100 µM
- Pattern of Inhibition ([6]; versus nucleotide): competitive with nucleotide binding
Molecule: O=C(O)c1ncccc1S [MPA, 3-mercaptopicolinic acid]

Molecule: O=C(O)CCC(=O)O [Compound 3, Succinate]
- % Activity Remaining [2, 8]: 91^c %
- Ki [2, 10]: > 8 mM

B1: Rat Liver Cytosolic Phosphoenolpyruvate Carboxykinase (Rattus norvegicus) (protein)
chain: T2 sequence (P07379 1-622)
- Km [7]: 82 µM and 89 µM
